This is an account of results in patent US20230019027A1, “SHORT CONJUGATED OLIGOELECTROLYTESAND ANTIBIOTICS” (The Regents Of The University Of California, priority 2019, published 2023).

What all share (assay type): cell-based
In one data set the test system is E. Coli K-12. Kind of data set: Susceptibility test: individual MIC and check point FIC. Also on record: MICCOE: unit not given beside the values. The conditions noted are these: for MICantibiotic: antibiotic alone, unit assumed; for FIC: smallest FIC. As for the experimental part: (§1) FIC was calculated based on the toxicity of each molecule on E. coli as well as their combined toxicity on E. coli. The equation for calculation is as follows:
(§2) FIC═[COE]/MICCOE+[Antibiotic]/MICantibiotic
(§3) An FIC less than ≤0.5 indicates synergy, FIC in the range of >0.5 and ≤1.0 indicates additive activity, FIC in the range of >1 and […] indicates indifference, and a FIC >4 indicates antagonism.
(§4) Minimal inhibition concentration (MIC) were used to determine the toxicity of individual molecules as well as them in combination on several bacterial strains. The individual MIC were determined by the minimal concentration of molecules required to inhibit the growth of the bacterial strain in culture medium (such as Lysogeny broth (LB) and Muller Hinton Broth (MHB)) at 37° C. overnight. The combined MICs were measured by using check point method, where the bacterial strain was cultured in a 96-well plate assay with a series concentrations of COE along the rows and a series concentrations of antibiotic molecules along the columns in culture medium at 37° C. overnight. The preparation of the bacterial strain for the assay was done as known in the art. […] Further information regarding the protocol can be found in Wiegand et al., Natl. Protoc., (2008) 3(2):163-75, Orhan et al., J. of Clin. Microbiol. (2005) 43(1):140-143 and Yan et al., Chem. Sci., (2016) 7(9):5714-5722.

Data set [1] has as its system Colistin resistant Acinetobactor baumanni. The description is as above. As for the experimental part: as §1, §2, §3, §4
The next data set relates to Acinetobactor baumanni. The data set is described as above. As for the experimental part:
as §1, §2, §3, §4

Data set [2] relates to Pseudomonas aeruginosa 01 (PA01). Described as above. Also on record: unit not given beside the values. Conditions: antibiotic alone, 37° C. overnight. As for the experimental part:
as §1, §2, §3, §4

Data set [3] has as its system Colistin resistant Pseudomonas aeruginosa. The data set is described as above. Also on record: MICantibiotic / MICCOE: unit not given beside the values. As for the experimental part: as §1, §2, §3, §4
In data set [4] the test system is HepG2 (ATCC HB-8065) cells. Kind of data set: Cellular cytotoxicity, MTT viability assay. The conditions noted are these: 24 h incubation, at 128 μg/mL. As for the experimental part: Cellular cytotoxicity was assessed using an MTT viability assay. HepG2 (ATCC HB-8065) cells were seeded at 1×10^4 cells/well in 96 well plates over night at 37° C. in DMEM supplemented with 10% FBS before use. COEs were serially diluted with 2-fold dilution in culture media to afford a concentration ranging from 2 to 128 μg/mL. After 24 h incubation, 10 μL of a 5 mg/mL solution of MTT was added to each well. After incubation for 2-4 h, upon discard of previous media, 100 μL of DMSO as solubilizing solution was added to each well, and absorbance at 570 nm were measured on a plate reader. Percent viability was determined by dividing background-corrected absorbance measurements by background corrected measurements for untreated cells. Formula O, Formula TT and Formula PP were measured to be around 94%, 70% and 103% of cell viability at 128 μg/mL, respectively.
A general note: Tetrazolium assays rely on reduction of a dye to a coloured formazan, in cell work by metabolically active cells.

[5] abbreviates: COE in combination with Colistin, smallest FIC.

As for penicillin, the MICantibiotic in the data set on E. Coli K-12 (E. Coli K-12) was 64 µg/mL.
The same measure, in the same setting: the value for `O=C(O)c1cn(C2CC2)c2cc(N3CCNCC3)c(F)cc2c1=O` [Ciprofloxacin, ciprofloxacin] was 0.125 µg/mL; that for `CC1(C)S[C@@H]2[C@H](NC(=O)[C@H](N)c3ccccc3)C(=O)N2[C@H]1C(=O)O` [Ampicilin, ampicillin] was 4 µg/mL.
With colistin [reference compound], the MICantibiotic with E. Coli K-12 (E. Coli K-12) worked out at 1 µg/mL; in data set [1] (antibiotic alone), 512; in the data set on Acinetobactor baumanni (antibiotic alone), 256; in data set [2] it was 1; in data set [3] (antibiotic alone) it was 16.
Take `C[N+](C)(C)CCCCCCOc1cc(/C=C/c2ccc(/C=C/c3ccc(/C=C/c4cc(OCCCCCC[N+](C)(C)C)cc(OCCCCCC[N+](C)(C)C)c4)cc3)cc2)cc(OCCCCCC[N+](C)(C)C)c1` [Formula TT]: the MICCOE in the data set on E. Coli K-12 (COE alone, E. Coli K-12) worked out at 1024; in data set [1] (COE alone), 256; in the data set on Acinetobactor baumanni (COE alone) it was 256; in data set [3] (COE alone), 256. For the same compound, the FIC in the data set with E. Coli K-12 (COE in combination with Chloramphenicol, E. Coli K-12) came out at 1.0; in the data set on E. Coli K-12 (COE in combination with Penicillin, E. Coli K-12), 0.53; in the data set with E. Coli K-12 (COE in combination with Rifampin, E. Coli K-12), 0.28; in data set [1] (setting [5]), 0.25; in the data set on Acinetobactor baumanni (setting [5]), 0.51; in data set [3] (setting [5]), 0.14. In addition, the “antimicrobial effect of combination (in words)” value in the data set on E. Coli K-12 (with rifampin, E. coli K-12) was “significant synergistic antimicrobial effect”; in data set [1] (with colistin), “significant synergistic antimicrobial effect”; in data set [3] (with colistin), “significant synergistic antimicrobial effect”. For the same compound, the cell viability (as a rule, a read-out of living cells in per cent, often relative to untreated cells) in data set [4] is given as approximately 70%.
Turning to `Cc1cc(NS(=O)(=O)c2ccc(N)cc2)no1` [Sulfamethoxazole, sulfamethoxazole], the MICantibiotic in the data set on E. Coli K-12 (E. Coli K-12) is 512 µg/mL.
`CO[C@H]1/C=C/O[C@@]2(C)Oc3c(C)c(O)c4c(O)c(c(/C=N/N5CCN(C)CC5)c(O)c4c3C2=O)NC(=O)/C(C)=C\C=C\[C@H](C)[C@H](O)[C@@H](C)[C@@H](O)[C@@H](C)[C@H](OC(C)=O)[C@@H]1C` [Rifampin, rifampin]: in the data set on E. Coli K-12 (E. Coli K-12), the MICantibiotic stood at 32 µg/mL.
Still for that read-out and setting: the value for `O=C(N[C@H](CO)[C@H](O)c1ccc([N+](=O)[O-])cc1)C(Cl)Cl` [Chloramphenicol, chloramphenicol] was 16 µg/mL.
